# Where two headings read alike, the source gives them in different places. Peptide text beside a SMILES is read from it.
# Tests used:
# BK2 receptor [1] = molecular target: T1, BK2 receptor (Rattus norvegicus, UniProt P25023); assay: cell-based
# T1 sequence (P25023 1-396): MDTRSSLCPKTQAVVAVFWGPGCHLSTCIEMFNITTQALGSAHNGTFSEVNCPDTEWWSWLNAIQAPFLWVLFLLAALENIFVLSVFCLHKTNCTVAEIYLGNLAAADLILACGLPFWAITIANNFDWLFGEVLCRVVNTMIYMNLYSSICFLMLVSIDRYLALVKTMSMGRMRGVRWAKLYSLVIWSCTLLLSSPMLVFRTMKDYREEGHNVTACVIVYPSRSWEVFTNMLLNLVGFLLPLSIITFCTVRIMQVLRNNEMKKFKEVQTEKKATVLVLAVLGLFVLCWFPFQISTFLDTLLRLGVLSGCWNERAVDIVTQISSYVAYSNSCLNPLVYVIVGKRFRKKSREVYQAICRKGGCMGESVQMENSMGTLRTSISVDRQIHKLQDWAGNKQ
# NK1 receptor = molecular target: T2, NK1 receptor (Cavia porcellus, UniProt P30547); assay: guinea pig ileum assay of NK1 receptor activity against substance P; assay type: cell-based; conditions: Table O; read-out: NK1 : GPI pA2 (± s.e.m.) (converted)
# T2 construct: a standard guinea pig ileum assay of NK1 receptor activity; from tissue; host or cells: guinea pig ileum
# Description: In order to illustrate the potential of blocking two different receptor populations with a single compound a consensus NK1 receptor antagonist (DArg-DPro-Lys-Pro-Gln-Asn-DPhe-Phe-DTrp-Leu-Nle) was synthesized. […] Once the activity of this reference ligand was established, a series of lysine containing monomers formed by the systematic substitution of a lysine residue sequentially through the reference peptide was synthesized.
# BK2 receptor [2] = molecular target: T3, BK2 receptor (Cavia porcellus, UniProt O70526); assay: guinea-pig ileum (GPI) in vitro, antagonism of BK; assay type: cell-based
# T3 construct: tested for activity on guinea pig ileum in vitro on the standard tissue bath/strain gauge system; from tissue; host or cells: guinea pig ileum
# T3 sequence (O70526 1-372): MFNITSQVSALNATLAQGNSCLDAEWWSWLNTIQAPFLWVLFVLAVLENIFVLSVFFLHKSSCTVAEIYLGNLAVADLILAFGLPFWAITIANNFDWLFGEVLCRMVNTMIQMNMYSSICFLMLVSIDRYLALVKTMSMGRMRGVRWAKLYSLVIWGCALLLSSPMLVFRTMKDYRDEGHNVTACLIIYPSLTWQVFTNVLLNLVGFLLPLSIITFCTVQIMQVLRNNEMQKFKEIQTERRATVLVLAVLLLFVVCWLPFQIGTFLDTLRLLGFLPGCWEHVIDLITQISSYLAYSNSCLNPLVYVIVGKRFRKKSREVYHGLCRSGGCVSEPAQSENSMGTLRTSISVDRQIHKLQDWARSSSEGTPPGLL
# Description: Thus, in vitro studies were performed on standard assay systems, namely, guinea-pig ileum (GPI), rat uterus (RU) and rabbit jugular vein (RJV). […] The potency of each compound was assessed as a pA2 value according to the method of Arunlakshana & Schild, Br. J. Pharmacol. Chemother., 1.4:48-58 (1959). The pA2 can be defined as the negative logarithm of the molar concentration of the antagonist in the presence of which the potency of the agonist is reduced two-fold, i.e., twice the amount of agonist is required to produce a given response in the presence of, than in the absence of, the antagonist. A high potency of antagonism is indicated by a high pA2 value, i.e., a low concentration of antagonist is effective.
# The percentage recovery (% Rec) was also determined for compounds with respect to each assay.
# The various compounds identified in Table B below were prepared following the procedure of Example 1 with the Cys moiety introduced into the parent CP-0088 at the position indicated followed by reaction between the sulfhydryl group of the Cys residue and BMH to provide dimers as indicated. The Cys-modified monomers and the resultant dimers were tested for activity on guinea pig ileum in vitro on the standard tissue bath/strain gauge system as before.
# [3] = Table B, read-out: pA2 GUINEA PIG ILEUM (converted)
# T2 sequence (P30547 whole entry): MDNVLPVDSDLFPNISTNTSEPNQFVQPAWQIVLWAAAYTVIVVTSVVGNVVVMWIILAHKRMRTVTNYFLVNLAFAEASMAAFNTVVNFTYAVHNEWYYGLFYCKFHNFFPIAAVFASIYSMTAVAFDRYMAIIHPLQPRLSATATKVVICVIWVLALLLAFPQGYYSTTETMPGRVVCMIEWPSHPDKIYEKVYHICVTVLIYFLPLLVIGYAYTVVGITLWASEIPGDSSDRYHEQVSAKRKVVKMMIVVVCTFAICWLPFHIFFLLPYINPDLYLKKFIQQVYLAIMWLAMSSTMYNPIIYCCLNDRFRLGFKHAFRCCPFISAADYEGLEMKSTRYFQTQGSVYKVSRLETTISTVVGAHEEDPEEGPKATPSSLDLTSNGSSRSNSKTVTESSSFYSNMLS
Structure (SMILES),Kb (BK2 receptor [1]) [nM],Kb (NK1 receptor) [nM],Kb (BK2 receptor [2]; [3]) [nM],"Kb (BK2 receptor [2]; Table E, read-out: GPI pA2 (converted)) [nM]"
"CCCC[C@H](NC(=O)[C@H](CCCCNC(=O)CCCCCN1C(=O)CC(SC[C@H](NC(=O)[C@H](Cc2ccccc2)NC(=O)CNC(=O)[C@@H]2C[C@@H](O)CN2C(=O)[C@@H]2CCCN2C(=O)[C@H](CCCNC(=N)N)NC(=O)[C@H](N)CCCNC(=N)N)C(=O)N[C@H](Cc2ccccc2)C(=O)N[C@@H](CC(C)C)C(=O)N[C@@H](CCCNC(=N)N)C(=O)O)C1=O)NC(=O)[C@@H](Cc1c[nH]c2ccccc12)NC(=O)[C@H](Cc1ccccc1)NC(=O)[C@@H](Cc1ccccc1)NC(=O)[C@H](CC(N)=O)NC(=O)[C@H](CCC(N)=O)NC(=O)[C@@H]1CCCN1C(=O)[C@H](CCCCN)NC(=O)[C@H]1CCCN1C(=O)[C@H](N)CCCNC(=N)N)C(N)=O (some centres unmarked) [CP-0399] (HELM PEPTIDE1{[dR].[dP].K.P.Q.N.[dF].F.[dW].K.[Nle].[am]}|PEPTIDE2{[dR].R.P.[Hyp].G.F.C.[dF].L.R}|CHEM1{[O=C1CC([*:2])C(=O)N1CCCCCC(=O)[*:1]]}$PEPTIDE1,CHEM1,10:R3-1:R1|PEPTIDE2,CHEM1,7:R3-1:R2$$$V2.0)",39.8,12600,,
"CCCC[C@H](NC(=O)[C@H](CC(C)C)NC(=O)[C@@H](Cc1c[nH]c2ccccc12)NC(=O)[C@H](Cc1ccccc1)NC(=O)[C@@H](Cc1ccccc1)NC(=O)[C@H](CC(N)=O)NC(=O)[C@H](CCCCNC(=O)CCCCCN1C(=O)CC(SC[C@H](NC(=O)[C@H](Cc2ccccc2)NC(=O)CNC(=O)[C@@H]2C[C@@H](O)CN2C(=O)[C@@H]2CCCN2C(=O)[C@H](CCCNC(=N)N)NC(=O)[C@H](N)CCCNC(=N)N)C(=O)N[C@H](Cc2ccccc2)C(=O)N[C@@H](CC(C)C)C(=O)N[C@@H](CCCNC(=N)N)C(=O)O)C1=O)NC(=O)[C@@H]1CCCN1C(=O)[C@H](CCCCN)NC(=O)[C@H]1CCCN1C(=O)[C@H](N)CCCNC(=N)N)C(N)=O (some centres unmarked) [CP-0394] (HELM PEPTIDE1{[dR].[dP].K.P.K.N.[dF].F.[dW].L.[Nle].[am]}|PEPTIDE2{[dR].R.P.[Hyp].G.F.C.[dF].L.R}|CHEM1{[O=C1CC([*:2])C(=O)N1CCCCCC(=O)[*:1]]}$PEPTIDE1,CHEM1,5:R3-1:R1|PEPTIDE2,CHEM1,7:R3-1:R2$$$V2.0)",12.6,1580,,
CC(C)C[C@H](NC(=O)[C@@H](Cc1ccccc1)NC(=O)[C@H](CO)NC(=O)[C@H](Cc1ccccc1)NC(=O)CNC(=O)[C@@H]1C[C@@H](O)CN1C(=O)[C@H](CS)NC(=O)[C@H](CCCNC(=N)N)NC(=O)[C@H](N)CCCNC(=N)N)C(=O)N[C@@H](CCCNC(=N)N)C(=O)O [CP-0142] (HELM PEPTIDE1{[dR].R.C.[Hyp].G.F.S.[dF].L.R}$$$$V2.0),,,> 1000,
CC(C)C[C@H](NC(=O)[C@@H](Cc1ccccc1)NC(=O)[C@H](CO)NC(=O)[C@H](Cc1ccccc1)NC(=O)CNC(=O)[C@@H]1C[C@@H](O)CN1C(=O)[C@@H]1CCCN1C(=O)[C@H](CCCNC(=N)N)NC(=O)[C@@H](N)CS)C(=O)N[C@@H](CCCNC(=N)N)C(=O)O [CP-0140] (HELM PEPTIDE1{C.R.P.[Hyp].G.F.S.[dF].L.R}$$$$V2.0),79.4,,200,
CC(C)C[C@H](NC(=O)[C@@H](Cc1ccccc1)NC(=O)[C@H](CO)NC(=O)[C@H](Cc1ccccc1)NC(=O)CNC(=O)[C@@H]1C[C@@H](O)CN1C(=O)[C@@H]1CCCN1C(=O)[C@H](CCCNC(=N)N)NC(=O)[C@H](N)CS)C(=O)N[C@@H](CCCNC(=N)N)C(=O)O [CP-0149] (HELM PEPTIDE1{[dC].R.P.[Hyp].G.F.S.[dF].L.R}$$$$V2.0),,,200,
"CC(C)C[C@H](NC(=O)[C@@H](Cc1ccccc1)NC(=O)[C@H](CO)NC(=O)[C@H](Cc1ccccc1)NC(=O)CNC(=O)[C@@H]1C[C@@H](O)CN1C(=O)[C@@H]1CCCN1C(=O)[C@H](CCCNC(=N)N)NC(=O)[C@@H](N)CSC1CC(=O)N(CCCCCCN2C(=O)CC(SC[C@H](N)C(=O)N[C@@H](CCCNC(=N)N)C(=O)N3CCC[C@H]3C(=O)N3C[C@H](O)C[C@H]3C(=O)NCC(=O)N[C@@H](Cc3ccccc3)C(=O)N[C@@H](CO)C(=O)N[C@H](Cc3ccccc3)C(=O)N[C@@H](CC(C)C)C(=O)N[C@@H](CCCNC(=N)N)C(=O)O)C2=O)C1=O)C(=O)N[C@@H](CCCNC(=N)N)C(=O)O (some centres unmarked) [CP-0152] (HELM PEPTIDE1{C.R.P.[Hyp].G.F.S.[dF].L.R}|PEPTIDE2{C.R.P.[Hyp].G.F.S.[dF].L.R}|CHEM1{[O=C1CC([*:1])C(=O)N1CCCCCCN1C(=O)CC([*:2])C1=O]}$PEPTIDE1,CHEM1,1:R3-1:R1|PEPTIDE2,CHEM1,1:R3-1:R2$$$V2.0)",,,> 1000,
CC(C)C[C@H](NC(=O)[C@@H](Cc1ccccc1)NC(=O)[C@H](CO)NC(=O)[C@H](Cc1ccccc1)NC(=O)CNC(=O)[C@H](CS)NC(=O)[C@@H]1CCCN1C(=O)[C@H](CCCNC(=N)N)NC(=O)[C@H](N)CCCNC(=N)N)C(=O)N[C@@H](CCCNC(=N)N)C(=O)O [CP-0143] (HELM PEPTIDE1{[dR].R.P.C.G.F.S.[dF].L.R}$$$$V2.0),,,200,
CC(C)C[C@H](NC(=O)[C@@H](Cc1ccccc1)NC(=O)[C@H](CO)NC(=O)[C@H](CS)NC(=O)CNC(=O)[C@@H]1C[C@@H](O)CN1C(=O)[C@@H]1CCCN1C(=O)[C@H](CCCNC(=N)N)NC(=O)[C@H](N)CCCNC(=N)N)C(=O)N[C@@H](CCCNC(=N)N)C(=O)O [CP-0144] (HELM PEPTIDE1{[dR].R.P.[Hyp].G.C.S.[dF].L.R}$$$$V2.0),,,398,
"CC(C)C[C@H](NC(=O)[C@@H](Cc1ccccc1)NC(=O)[C@H](CO)NC(=O)[C@H](Cc1ccccc1)NC(=O)CNC(=O)[C@@H]1C[C@@H](O)CN1C(=O)[C@H](CSC1CC(=O)N(CCCCCCN2C(=O)CC(SC[C@H](NC(=O)[C@H](CCCNC(=N)N)NC(=O)[C@H](N)CCCNC(=N)N)C(=O)N3C[C@H](O)C[C@H]3C(=O)NCC(=O)N[C@@H](Cc3ccccc3)C(=O)N[C@@H](CO)C(=O)N[C@H](Cc3ccccc3)C(=O)N[C@@H](CC(C)C)C(=O)N[C@@H](CCCNC(=N)N)C(=O)O)C2=O)C1=O)NC(=O)[C@H](CCCNC(=N)N)NC(=O)[C@H](N)CCCNC(=N)N)C(=O)N[C@@H](CCCNC(=N)N)C(=O)O (some centres unmarked) [CP-0154] (HELM PEPTIDE1{[dR].R.C.[Hyp].G.F.S.[dF].L.R}|PEPTIDE2{[dR].R.C.[Hyp].G.F.S.[dF].L.R}|CHEM1{[O=C1CC([*:1])C(=O)N1CCCCCCN1C(=O)CC([*:2])C1=O]}$PEPTIDE1,CHEM1,3:R3-1:R1|PEPTIDE2,CHEM1,3:R3-1:R2$$$V2.0)",,,126,
"CC(C)C[C@H](NC(=O)[C@@H](Cc1ccccc1)NC(=O)[C@H](CSSC[C@H](NC(=O)[C@H](Cc1ccccc1)NC(=O)CNC(=O)[C@@H]1C[C@@H](O)CN1C(=O)[C@@H]1CCCN1C(=O)[C@H](CCCNC(=N)N)NC(=O)[C@H](N)CCCNC(=N)N)C(=O)N[C@H](Cc1ccccc1)C(=O)N[C@@H](CC(C)C)C(=O)N[C@@H](CCCNC(=N)N)C(=O)O)NC(=O)[C@H](Cc1ccccc1)NC(=O)CNC(=O)[C@@H]1C[C@@H](O)CN1C(=O)[C@@H]1CCCN1C(=O)[C@H](CCCNC(=N)N)NC(=O)[C@H](N)CCCNC(=N)N)C(=O)N[C@@H](CCCNC(=N)N)C(=O)O [CP-0138] (HELM PEPTIDE1{[dR].R.P.[Hyp].G.F.C.[dF].L.R}|PEPTIDE2{[dR].R.P.[Hyp].G.F.C.[dF].L.R}$PEPTIDE1,PEPTIDE2,7:R3-7:R3$$$V2.0)",10,,,63.1

# Reference: US5620958A, “Bradykinin antagonists” (Coretech, Inc., priority 1994, dated 1997)
